According to PubChem BioAssay AID212 (DTP/NCI, 2004):
Where “and” joins values, the source holds several entries; their conditions need not be identical. Equal values may be shown once. Inconclusive results are not listed.

Tested on: BDF1 mice, colon carcinoma 38 sc, T/C %
Test: NCI In Vivo Anticancer Drug Screen. Data for tumor model Colon Carcinoma 38 (subcutaneous) in B6D2F1 (BDF1) mice
Settings: endpoint: median tumor weight (est.), higher = larger tumour
How it was run: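 Transplantable tumor in mice; compound-treated vs vehicle-dosed controls. Measured survival or tumor size; value = T ÷ C.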

[1] = dose: 12.5 mg/kg/injection, schedule: Q07DX002 (ip), vehicle: Klucel (hydroxypropylcellulose) (HPC)
[2] = dose: 25.0 mg/kg/injection, schedule: Q07DX002 (ip), vehicle: Klucel (hydroxypropylcellulose) (HPC)
[3] = dose: 50.0 mg/kg/injection, schedule: Q07DX002 (ip), vehicle: Klucel (hydroxypropylcellulose) (HPC)
[4] = dose: 400.0 mg/kg/injection, schedule: Q07DX002 (ip), vehicle: Klucel (hydroxypropylcellulose) (HPC)
[5] = dose: 25.0 mg/kg/injection, schedule: Q07DX002 (ip), vehicle: saline with Tween-80
[6] = dose: 100.0 mg/kg/injection, schedule: Q07DX002 (ip), vehicle: saline with Tween-80

Nc1ccccc1N was tested, and the T/C [1] was 75 % of control and 91 % of control, the T/C [2] was 122 % of control and 102 % of control and the T/C [3] was 91 % of control. The T/C [4] was 54 % of control.

In the case of CN=C(N)N/N=C(\C)c1ccc2c(c1)Cc1ccccc1-2, the T/C (dose: 12.5 mg/kg/injection, schedule: Q07DX002 (ip), vehicle: saline with Tween-80) is reported as 95 % of control and 98 % of control, the T/C [5] is reported as 63 % of control and 85 % of control and the T/C (dose: 50.0 mg/kg/injection, schedule: Q07DX002 (ip), vehicle: saline with Tween-80) is reported as 83 % of control and 86 % of control. The T/C [6] was 81 % of control and 93 % of control.

ClCCCCCCCCCCc1ccccc1 was tested, and the T/C [1] was 83 % of control, the T/C (dose: 12.5 mg/kg/injection, schedule: Q07DX003 (ip), vehicle: Klucel (hydroxypropylcellulose) (HPC)) was 77 % of control and the T/C [2] was 83 % of control. The T/C (dose: 25.0 mg/kg/injection, schedule: Q07DX003 (ip), vehicle: Klucel (hydroxypropylcellulose) (HPC)) was 95 % of control, the T/C (dose: 50.0 mg/kg/injection, schedule: Q07DX003 (ip), vehicle: Klucel (hydroxypropylcellulose) (HPC)) was 63 % of control and the T/C (dose: 100.0 mg/kg/injection, schedule: Q07DX002 (ip), vehicle: Klucel (hydroxypropylcellulose) (HPC)) was 67 % of control. For the same compound, the T/C (dose: 100.0 mg/kg/injection, schedule: Q07DX003 (ip), vehicle: Klucel (hydroxypropylcellulose) (HPC)) was 65 % of control, the T/C (dose: 200.0 mg/kg/injection, schedule: Q07DX002 (ip), vehicle: Klucel (hydroxypropylcellulose) (HPC)) was 80 % of control and the T/C (dose: 200.0 mg/kg/injection, schedule: Q07DX003 (ip), vehicle: Klucel (hydroxypropylcellulose) (HPC)) was 90 % of control. The T/C [4] was 88 % of control and the T/C (dose: 400.0 mg/kg/injection, schedule: Q07DX003 (ip), vehicle: Klucel (hydroxypropylcellulose) (HPC)) was 51 % of control.

With CCCCCCCCCCCCCCCCS(=O)CC(O)COC(=O)c1ccc(C(=O)OCC(O)CS(=O)CCCCCCCCCCCCCCCC)cc1 (stereo not given) the T/C (dose: 12.5 mg/kg/injection, schedule: Q07DX002 (ip), vehicle: saline + alcohol) was 111 % of control, the T/C (dose: 25.0 mg/kg/injection, schedule: Q07DX002 (ip), vehicle: saline + alcohol) was 98 % of control and the T/C (dose: 50.0 mg/kg/injection, schedule: Q07DX002 (ip), vehicle: saline + alcohol) was 98 % of control. For the same compound, the T/C (dose: 100.0 mg/kg/injection, schedule: Q07DX002 (ip), vehicle: saline + alcohol) was 117 % of control, the T/C (dose: 200.0 mg/kg/injection, schedule: Q07DX002 (ip), vehicle: saline + alcohol) was 76 % of control and the T/C (dose: 400.0 mg/kg/injection, schedule: Q07DX002 (ip), vehicle: saline + alcohol) was 104 % of control.

For NCCc1cc(O)c(O)c(O)c1, the T/C (dose: 25.0 mg/kg/injection, schedule: Q07DX002 (ip), vehicle: saline) was 71 % of control, the T/C (dose: 50.0 mg/kg/injection, schedule: Q07DX002 (ip), vehicle: saline) was 62 % of control and the T/C (dose: 100.0 mg/kg/injection, schedule: Q07DX002 (ip), vehicle: saline) was 82 % of control. For the same compound, the T/C (dose: 200.0 mg/kg/injection, schedule: Q07DX002 (ip), vehicle: saline) was 80 % of control, the T/C (dose: 400.0 mg/kg/injection, schedule: Q07DX002 (ip), vehicle: saline) was 110 % of control and the T/C (dose: 800.0 mg/kg/injection, schedule: Q07DX002 (ip), vehicle: saline) was 51 % of control.

CCC1CN2C(=N1)c1ccccc1-c1cc(Cl)ccc12 (stereo not given) was tested, and the T/C (dose: 3.13 mg/kg/injection, schedule: Q07DX003 (ip), vehicle: suspension in saline) was 83 % of control, the T/C (dose: 6.25 mg/kg/injection, schedule: Q07DX003 (ip), vehicle: suspension in saline) was 93 % of control and the T/C (dose: 12.5 mg/kg/injection, schedule: Q07DX003 (ip), vehicle: suspension in saline) was 118 % of control.

In the case of O=NN(CCF)C(=O)NC1CCCCC1, the T/C [1] is reported as 77 % of control and the T/C [3] is reported as 15 % of control.

O=C1OCC2C(=O)OCC12 (stereo not given) was tested, and the T/C [5] was 103 % of control, the T/C [6] was 46 % of control and the T/C (dose: 200.0 mg/kg/injection, schedule: Q07DX002 (ip), vehicle: saline with Tween-80) was 120 % of control. The T/C (dose: 400.0 mg/kg/injection, schedule: Q07DX002 (ip), vehicle: saline with Tween-80) was 69 % of control.

For Cc1c(N)nc([C@H](CC(N)=O)NC[C@H](N)C(N)=O)nc1C(=O)N[C@H](C(=O)N[C@H](C)[C@@H](O)[C@H](C)C(=O)N[C@H](C(=O)NCCc1nc(-c2nc(C(=O)NCCC[S+](C)C)cs2)cs1)[C@@H](C)O)C(OC1OC(CO)C(O)C(O)C1OC1OC(CO)C(O)C(OC(N)=O)C1O)c1cnc[nH]1 (stereo not given in full), the T/C (dose: 3.0 mg/kg/injection, schedule: Q07DX003 (ip), vehicle: saline) was 62 % of control, the T/C (dose: 6.0 mg/kg/injection, schedule: Q07DX003 (ip), vehicle: saline) was 88 % of control and the T/C (dose: 12.0 mg/kg/injection, schedule: Q07DX003 (ip), vehicle: saline) was 63 % of control. The T/C (dose: 24.0 mg/kg/injection, schedule: Q07DX003 (ip), vehicle: saline) was 85 % of control and the T/C (dose: 48.0 mg/kg/injection, schedule: Q07DX003 (ip), vehicle: saline) was 60 % of control.
